Assay results reported in article PMC5437670 (Journal of the American Chemical Society, 2017).

Legend:
[1] = biological target: T1, Thermotoga maritima TmGH1 β-glucosidase (Thermotoga maritima, UniProt Q08638); experiment: Kinetic studies of reversible inhibition of TmGH1; format: biochemical; conditions: for inhibition of TmGH1 (in words): p-nitrophenyl β-D-glucopyranoside, Lineweaver–Burk method
T1 sequence (Q08638 1-446): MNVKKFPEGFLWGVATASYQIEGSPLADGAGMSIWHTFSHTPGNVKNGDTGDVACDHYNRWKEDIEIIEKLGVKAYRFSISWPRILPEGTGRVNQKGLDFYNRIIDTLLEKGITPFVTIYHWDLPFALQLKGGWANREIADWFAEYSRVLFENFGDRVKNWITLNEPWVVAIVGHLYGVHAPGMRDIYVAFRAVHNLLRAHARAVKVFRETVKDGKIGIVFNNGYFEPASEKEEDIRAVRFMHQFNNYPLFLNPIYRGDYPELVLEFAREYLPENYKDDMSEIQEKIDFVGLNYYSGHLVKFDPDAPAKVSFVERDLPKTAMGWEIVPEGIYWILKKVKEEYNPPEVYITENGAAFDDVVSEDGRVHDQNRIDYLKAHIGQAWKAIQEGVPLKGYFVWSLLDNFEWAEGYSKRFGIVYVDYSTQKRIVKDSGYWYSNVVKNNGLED

[2] = biological target: recombinant human GAA (Myozyme), lysosomal α-glucosidase (Homo sapiens, UniProt P10253); experiment: Enzyme activity assay, apparent IC50 on GAA; format: biochemical

Structure (SMILES)	inhibition of TmGH1 (in words) [1]	IC50 [2] [µM]	Ki [1] [µM]	inhibition of GAA (in words) ([2]; final concentrations up to 150 μM)
OC[C@@H]1[C@@H](O)[C@H](O)[C@@H](O)CN1CCCCCOCC12CC3CC(CC(C3)C1)C2 [AMP-DNM (MZ-21), reference compound]	low micromolar	–	–	–
CCOC(=O)[C@@H]1[C@H]2[C@H](O)[C@@H](O)[C@H](O)[C@@H](CO)[C@@H]12 [Compound 3]	micromolar inhibition	> 150	22.3	–
[N-]=[N+]=NCCCCNC(=O)[C@@H]1[C@H]2[C@H](O)[C@@H](O)[C@H](O)[C@@H](CO)[C@@H]12 [Compound 5]	–	> 150	0.0082	No apparent inhibition
OC[C@H]1NC[C@H](O)[C@@H](O)[C@@H]1O [DNJ, deoxynojirimycin, reference compound]	low micromolar	–	2.5	–
